We go through 5 compounds from paper PMC13130965, “An Integrated Approach Combining Regulatory Tests in tg(cyp19a1b:GFP) Zebrafish Embryos to Assess Toxicity, Developmental Effects, and Estrogenic Activity of Chemicals: A Case Study with Bisphenol A Substitutes” (Environmental Science & Technology, 2026).

The structures appear in SMILES notation. Converted amounts (≈) assume the structure as drawn. Like-named read-outs stand apart in the source and are kept apart here.

Series [1] has as its system hERβ. Details: method as in Grimaldi et al. To be noted: HELN-hERβ; ref Grimaldi et al.; cited from earlier work.
In the next series the test system is Zebrafish embryos. To be noted: cited from earlier work; for LC50 (96h) literature: zebrafish embryos.
In the next series the target is zebrafish ERβ2 (zfERβ2) (Danio rerio, UniProt Q7ZU32). As to the kind of experiment: ZELH-zfERβ2 luciferase reporter gene assay. The following applies: read-out: maximal efficacy. The class given is cell-based. The protocol: The ZELH-zfERs reporter cell line was previously established after a two-step stable transfection of the zebrafish hepatic cell line ZFL with the luciferase gene under the control of ERE (yielding the ZELH cell line that expresses no functional ER) and the zebrafish ER subtype β2 (yielding the ZELH-zfERβ2 cell line). Cells were cultured, exposed to chemicals for 72 h, and measured for luciferase activity exactly as previously described. , For each chemical, serial dilutions were prepared in DMSO and tested in three independent experiments. The final DMSO concentration in the culture medium was always 0.1% v/v. All tested concentrations refer to nominal concentrations.
Chain of zebrafish ERβ2 (zfERβ2) (Q7ZU32 1-553): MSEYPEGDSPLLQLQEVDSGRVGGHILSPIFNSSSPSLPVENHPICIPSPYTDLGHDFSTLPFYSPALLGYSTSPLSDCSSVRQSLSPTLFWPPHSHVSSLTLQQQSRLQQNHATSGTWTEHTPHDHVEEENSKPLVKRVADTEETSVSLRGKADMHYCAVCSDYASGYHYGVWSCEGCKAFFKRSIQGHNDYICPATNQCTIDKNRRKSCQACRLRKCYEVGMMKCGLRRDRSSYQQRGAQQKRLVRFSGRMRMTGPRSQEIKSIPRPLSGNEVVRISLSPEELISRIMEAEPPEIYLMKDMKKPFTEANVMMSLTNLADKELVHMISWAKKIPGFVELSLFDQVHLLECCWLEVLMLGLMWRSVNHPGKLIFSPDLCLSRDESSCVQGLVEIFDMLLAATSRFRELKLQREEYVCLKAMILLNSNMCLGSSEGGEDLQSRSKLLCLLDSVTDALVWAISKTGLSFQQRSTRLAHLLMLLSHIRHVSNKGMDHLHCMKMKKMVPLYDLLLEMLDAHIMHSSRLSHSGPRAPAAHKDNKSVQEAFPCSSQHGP

Series [2] can be described thus: Refined Fish Embryo Acute Toxicity test (FET, OECD TG 236): mortality. The class given is in vivo, zebrafish (Danio rerio). To be noted: tg(cyp19a1b:GFP), zebrafish, in vivo, other: waterborne exposure of embryos in test solution, LC50 (96h) experimental (FET test), nominal, brackets 95% CI. The protocol:
(§1) Exposures were carried out in presaturated 24-well plates containing one embryo per well in 2 mL of test solution. The exposure was performed under semistatic conditions, with daily renewal of the test solution. The concentration ranges tested, along with a control with the same percentage of solvent alone, are recapitulated in Table S1. All exposure concentrations are reported as nominal. During the time course of the refined FET tests, embryos were observed after 8 h (coagulation), 24 h (lack of somite formation and nondetachment of the tail), and 48, 72, and 96 h of exposure (nondetection of the heartbeat). […] Moreover, hatching rate and nonlethal developmental effects (i.e., yolk deformity, growth retardation, spontaneous movement, edema, blood tail circulation, heart rate, pigmentation, head and tail/spinal malformations, and hemorrhage) were monitored daily. Tail/spinal malformations included lordosis, kyphosis, scoliosis, and reduced tail length.
(§2) This analysis considered all nonlethal developmental end points monitored in the refined FET assay (see above), except effects on hatching, pigmentation, spontaneous movement, and blood circulation. A teratogenic index (TI) was then calculated as the ratio LC50/EC50.
Baseline toxicity and experimental FET LC50 values were used to calculate toxic ratios (TR = predicted baseline toxicity LC50/experimental FET LC50). Compounds with TR < 10 were considered as baseline toxicants.

Series [3] deals with tg(cyp19a1b:GFP) zebrafish embryos. Description: Refined FET: developmental effects / malformations. It is filed as in vivo, zebrafish (Danio rerio). To be noted: nominal; for EC50: Danio rerio, end of 96 h exposure, read-out: EC50 malformations (cumulative sublethal end points); for LOEC deformity of yolk: at least 10% of embryos affected. As to the method: as §1, §2
The subject of series [4] is cyp19a1b:GFP (brain aromatase) in tg(cyp19a1b:GFP) zebrafish embryos. Description: EASZY assay (OECD TG 250): GFP induction. The class given is in vivo, zebrafish (Danio rerio). The protocol: The tests were conducted according to OECD TG 250. Newly fertilized cyp19a1b-GFP eggs were transferred to glass crystallizing dishes and exposed for 96 h in a humidified climate chamber (27 ± 2 °C) under semistatic conditions with a total renewal of the test solutions each day. Each condition consisted of three crystallizing dishes, each containing 7 embryos and 15 mL of test medium. Embryos were exposed to a range of nonlethal concentrations of chemicals as determined previously based on the refined FET assays. The tested concentration ranges of bisphenols, along with a control with the same percentage of solvent alone, are summarized in Table S2. All exposure concentrations are reported as nominal. At the end of exposure, transgenic zebrafish embryos were collected for fluorescence imaging to quantify GFP intensity. At the end of the experiments, all living zebrafish embryos were euthanized as described above. […] ICI was added together with bisphenols from 0 to 4 dpf (days post fertilization). […] In all coexposure experiments, the final DMSO concentration was 0.02% (v/v).
For fluorescence imaging, GFP fold induction was expressed as mean ± SEM, and values were compared to the DMSO control using one-way ANOVA followed by Dunnett’s posthoc test. […]

The conditions of series [5]: ref Adamovsky et al.; cited from earlier work.
The test system of series [6] is hERβ. Details: method as in Pelch et al. The following applies: HepG2-hERβ, ref Pelch et al., cited from earlier work.
The mark [7] stands for this setting: 150h exposure, ref Song et al. (2014).

Take `CC(C)(c1cc(Cl)c(O)c(Cl)c1)c1cc(Cl)c(O)c(Cl)c1` [TCBPA, Tetrachloro-bisphenol A]: in the series on hERβ [1], the EC50 – broadly, the concentration at which the effect is half-maximal – was 68000 nM and the maximal efficacy was 21%. For the same compound, the “concentrations causing lethal effects” value in the series on Zebrafish embryos (3-6 dpf exposure, ref Riu et al. (2014)) is “above 1 µM”. Further, in the series on Zebrafish embryos (setting [7]), the “LC50(144h)” value was 0.75 µg/mL (≈ 2.05 µM) and the LOAELs is recorded as 1 mg/L. Further, in the series with Zebrafish embryos (ref Song et al.), the “LC50 (96h) literature” value is “≈ 1 mg/L”. Moreover, at zebrafish ERβ2 (zfERβ2), the Emax is 42%. The LC50 – broadly, the concentration lethal to half of the exposed cells or organisms – at 96 h in series [2] is 0.88 µg/mL (≈ 2.4 µM). For the same compound, in series [3], the EC50 is 0.48 µg/mL (≈ 1.31 µM), the LOEC edema is 0.5 mg/L, the LOEC head malformations was found to be 1 mg/L and the “LOEC heart rate disruption” value is given as 1 mg/L. Also, in series [3], the “LOEC no blood tail circulation” value came out at 1 mg/L, the “LOEC no spontaneous movement” value stood at 2 mg/L, the “LOEC no/Less pigmentation” value is listed as 1 mg/L and the LOEC tail/spinal malformations is 0.5 mg/L. Besides, the “LOEC deformity of yolk” value in series [3] stood at 1 mg/L. Further, the “estrogenic activity in EASZY assay” value in series [4] (zebrafish, in vivo) is “absence of estrogenic activity”. Moreover, the “Log Kow” value in series [5] is recorded as 6.19. Also, the maximal efficacy in the series with hERβ [6] was 15%.
`Oc1ccc(Oc2ccc(O)cc2)cc1` [4,4’-ODP, 4-(4-hydroxyphenoxy)phenol]: in the series with hERβ [1], the EC50 was 3060 nM and the maximal efficacy is 72%. Also, the Emax at zebrafish ERβ2 (zfERβ2) came to 61%. The same compound gave an LC50 at 96 h in series [2] of 17.1 µg/mL (≈ 84.3 µM). Further, in series [3], the EC50 is 0.35 µg/mL (≈ 1.73 µM), the LOEC edema is 0.99 mg/L, the LOEC growth retardation worked out at 8.89 mg/L and the LOEC head malformations was found to be 2.96 mg/L. For the same compound, in series [3], the “LOEC heart rate disruption” value stood at 2.96 mg/L, the LOEC hemorrhage came out at 0.99 mg/L, the “LOEC no blood tail circulation” value worked out at 8.89 mg/L and the “LOEC no/Less pigmentation” value is 0.99 mg/L. Besides, in series [3], the LOEC tail/spinal malformations is 2.96 mg/L and the “LOEC deformity of yolk” value amounted to 2.96 mg/L. Moreover, the concentration giving a half-maximal response (EC50) in series [4] (Danio rerio, 96 h, read-out: EASZY relative EC50, nominal, 96 h) was 0.363 µg/mL (≈ 1.8 µM).
Turning to `O=S(=O)(c1ccc(O)cc1)c1ccc(OCc2ccccc2)cc1` [BPS-MPE, 4-(4-phenylmethoxyphenyl) sulfonylphenol], the LC50 at 96 h in series [2] is 3.17 µg/mL (≈ 9.31 µM). In addition, in series [3], the EC50 was 3.45 µg/mL (≈ 10.1 µM). Moreover, the “Log Kow” value in series [5] was 4.18. Moreover, the maximal efficacy in the series on hERβ [6] is given as 4%.
On to `Cc1cc(C(C)(C)c2ccc(O)c(C)c2)ccc1O` [BPC, 4-[2-(4-hydroxy-3-methylphenyl)propan-2-yl]-2-methylphenol], for which, in the series with Zebrafish embryos (ref Gao et al.), the “LC50 (96h) literature” value was 2.22 µg/mL (≈ 8.66 µM). Also, on zebrafish ERβ2 (zfERβ2), the Emax worked out at 66%. In series [2], the LC50 at 96 h came out at 4.92 µg/mL (≈ 19.2 µM). In addition, in series [3], the EC50 is 2.77 µg/mL (≈ 10.8 µM), the “LOEC heart rate disruption” value turned out to be 8.53 mg/L, the LOEC hemorrhage turned out to be 8.53 mg/L and the “LOEC no blood tail circulation” value came to 8.53 mg/L. Also, in series [3], the LOEC tail/spinal malformations is 8.53 mg/L. Besides, the “Log Kow” value in series [5] was 4.32.
In the case of `C[C@]12CC[C@@H]3c4ccc(O)cc4CC[C@H]3[C@@H]1CC[C@@H]2O` [E2, 17β-Estradiol, reference compound], the concentration giving a half-maximal response (EC50) is […] in the series on hERβ [1] and […] with hERβ [6] (NA = not active).
